This note sets out measurements from US5068244A, “Benzocyclohexanes and analgesic compositions thereof” (Roussel Uclaf, priority 1988, dated 1991).

In the assay the target is T1, opiate receptor K (Cavia porcellus, UniProt P41144).
T1 construct: Membranous sediment preserved at -30° C; and prepared from guinea pig cerbelli were used; from tissue; host or cells: guinea pig cerebellum membranes
T1 sequence (P41144 whole entry): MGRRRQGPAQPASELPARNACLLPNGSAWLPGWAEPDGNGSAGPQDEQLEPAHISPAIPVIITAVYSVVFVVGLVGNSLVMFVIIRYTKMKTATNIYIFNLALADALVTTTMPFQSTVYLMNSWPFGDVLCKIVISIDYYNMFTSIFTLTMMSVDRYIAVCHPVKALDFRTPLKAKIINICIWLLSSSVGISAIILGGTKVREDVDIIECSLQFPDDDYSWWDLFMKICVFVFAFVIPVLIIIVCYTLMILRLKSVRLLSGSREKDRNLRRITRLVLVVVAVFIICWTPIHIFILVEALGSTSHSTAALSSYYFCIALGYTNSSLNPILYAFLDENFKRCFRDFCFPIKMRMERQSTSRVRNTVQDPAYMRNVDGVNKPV
In words: Binding of the opiate receptor K in vitro (displacement of 3H ethylketocyclazocine). To be noted: guinea pig cerebellum membranes, 3H ethylketocyclazocine 1 nM, Tris pH 7.7, 25° C., 40 minutes; read-out: CI50 (the source's name). As for the experimental part:
Membranous sediment preserved at -30° C. (possibly for 30 days) and prepared from guinea pig cerbelli were used. The sediments were put in suspension in the buffer Tris pH 7.7. Fractions of 2 ml were distributed in hemolysis tubes and ^3 H ethylketocyclazocine 1 nM and the product to be studied were added. The following were determined: the maximum quantity of fixed radioactivity in the presence of ^3 H ethylketocyclazocine alone, the quantity of radioactivity bonded in a non-specific manner in the presence of the tritiated ligand and of an excess (10^-5 M) of the reference product known under the name of U-50488 H and the displacement of specific bonding produced by a dose of 5×10^-5 M of the product to be tested.
These tests were carried out in triplicate and aliquotes of 2 ml were incubated at 25° C. for 40 minutes. After returning to 0° C. for 5 minutes at the end of the incubation, they were filtered with Whatman GF/C filters, rinsed in Tris buffer pH 7.7 and the radioactivity was counted in the presence of scintillating Triton. When the product to be tested displaced the specifically fixed radioactivity by more than 50%, the 50% inhibiting concentration (CI50) was determined by a 7 dose scale. The results of the 50% inhibiting concentration were then expressed in nM. The CI50 was therefore the concentration of the product studied, expressed in nM, necessary to displace 50% of the specifically fixed radioactivity on the receptor studied (LAHTI et al, 1982, Life Sci., Vol. 31, 2257) The results are as follows: […]
Regarding `CN(C(=O)Cc1ccc([N+](=O)[O-])cc1)[C@H]1c2ccccc2CC[C@@H]1N1CCCC1` (relative stereo) [Example 2, Trans (±) N-methyl-4-nitro-N-[2-(1-pyrrolidinyl)-1,2,3,4-tetrahydro-1-naphthyl]-benzene acetamide], the IC50 was found to be 12 nM.

`CN(C(=O)Cc1cccc2ccccc12)[C@H]1c2ccccc2CC[C@@H]1N1CCCC1` (relative stereo) [Example 3, Trans (±) N-methyl-N-[2-(1-pyrrolidinyl)-1,2,3,4-tetrahydro-1-naphthyl]-1-naphthalene acetamide]: the IC50 came out at 11 nM.

As for `CN(C(=O)Cc1cccc2sccc12)[C@H]1c2ccccc2CC[C@@H]1N1CCCC1` (relative stereo) [Example 20, Trans (±) N-methyl-N-[2-(1-pyrrolidinyl)-1,2,3,4-tetrahydro-1-naphthyl]-4-benzo-[b]-thiophene acetamide], the IC50 was determined as 3.3 nM.
